Values of other authors, collected in patent US20250034331A1, “POLYESTER URETHANE BIORESORBABLE ELASTOMERS WITH MICROSTRUCTURES FOR TUNABLE DRUG RELEASE AND TUNABLE DEGRADATION” (SOLESIS, INC., priority 2023, published 2025).

How the values were obtained:
[1] = humans

| time of excretion [1] [h] | solubility in PBS | Structure (SMILES) |
| --- | --- | --- |
| ≤ 10 |  | NCCCCCCN [HDA, hexamethylene diamine] |
|  | about 75 μg/mL | C[C@@H]1C[C@H]2[C@@H]3CCC4=CC(=O)C=C[C@]4(C)[C@@]3(F)[C@@H](O)C[C@]2(C)[C@@]1(O)C(=O)CO [dexamethasone] |
